From patent US6303618A, “Cyclin dependent kinase inhibiting purine derivatives” (priority 1997, dated 2001)
Where “and” joins values, the source holds several entries; their conditions need not be identical. Equal values may be shown once. Read-outs that look alike come from different tables or passages of the source.

How the values were obtained:
[1] = biological target: CDK2 (Homo sapiens, UniProt P24941); assay: CDK inhibition assay, CDK2; format: biochemical; settings: for IC50: Table 1; for inhibition at 100 µM: read-out: % inhibition CDK2, at 100 μM
Source text: (§1) Apart from reference compounds, the compounds listed are accompanied by an NU reference or identification code number.
(§2) By way of example, however, a typical protocol is summarised below.

[2] = Insolubility noted in the CDK assay
[3] = test system: CDK1 (p34 cdc2)/cyclin B; assay: CDK inhibition assay (histone H1 kinase), CDK1; format: biochemical, starfish (Marthasterias glacialis); settings: for IC50: CDK1, Table 1
Description: as §2
Histone H1 (type III-S (Sigma) 4° C.) 5 mg/ml in buffer C.
[^32 P]ATP […]: Make up using (multiples of) the following proportions:
DMSO cannot exceed 1% in the assay mixture. Inhibitors are added at 1/10 final assay volume and 10×final strength. DMSO stocks must therefore be diluted to 10×final desired concentration in ≤10% DMSO, ≥90% buffer C.
Start reaction in each tube at 30 second intervals by adding
5 ml [^32 P]ATP vortexing and placing in rack in waterbath at 30° C.
Terminate reaction after 10 min at 30 second intervals in tubes in same order by removing
25 ml reaction mix and spotting onto appropriately labelled filter, allowing to dry for 20-30 seconds and transferring to stirring 1% phosphoric acid.
Blank incubation is performed as above but without histone (add […] buffer C instead) Washing blank is […] ATP added directly to filter.

[4] = Cytotoxicity; format: cell-based
[5] = test system: O^6 -methylguanine DNA-methyltransferase (MGMT)
[6] = biological target: T1, CDK4 (Homo sapiens, UniProt P11802); assay: CDK inhibition assay, CDK4; format: biochemical; settings: Table 1
T1 sequence (P11802 whole entry, species assumed): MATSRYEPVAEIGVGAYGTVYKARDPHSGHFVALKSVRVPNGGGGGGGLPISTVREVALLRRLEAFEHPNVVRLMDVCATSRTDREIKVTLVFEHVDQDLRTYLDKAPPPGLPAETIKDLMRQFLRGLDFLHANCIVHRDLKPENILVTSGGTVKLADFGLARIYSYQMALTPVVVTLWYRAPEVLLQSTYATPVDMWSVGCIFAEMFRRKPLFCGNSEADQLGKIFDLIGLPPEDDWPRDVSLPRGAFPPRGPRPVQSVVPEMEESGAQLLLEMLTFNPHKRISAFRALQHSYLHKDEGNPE
T1 sequence (P24385 whole entry partner, species assumed): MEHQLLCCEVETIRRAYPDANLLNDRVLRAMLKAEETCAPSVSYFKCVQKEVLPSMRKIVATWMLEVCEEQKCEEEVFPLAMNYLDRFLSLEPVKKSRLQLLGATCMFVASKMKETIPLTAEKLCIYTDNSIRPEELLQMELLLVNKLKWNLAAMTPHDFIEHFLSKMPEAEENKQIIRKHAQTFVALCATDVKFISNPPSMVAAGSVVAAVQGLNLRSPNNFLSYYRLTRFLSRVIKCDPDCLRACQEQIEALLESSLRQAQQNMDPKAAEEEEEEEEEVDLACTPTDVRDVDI
Source text: as §1, §2

[7] = test system: CDK; settings: in words; cited from earlier work
[8] = biological target: T1, CDK4; settings: in words; cited from earlier work
[9] = test system: CDK6; settings: in words; cited from earlier work
[10] = test system: many common kinases other than CDK's; settings: in words; cited from earlier work
[11] = read-out: % inhibition CDK2, at 10 μM
[12] = at 10 μM, read-out: % inhibition CDK2

SMILES | inhibition at 10 µM [1, 11] [%] | insolubility in CDK2 assay ([2]; at 100 μM) | % inhibition CDK1 ([3]; at 10 μM) [%] | IC50 ([6]; CDK4, read-out: IC50 CDK4) [µM] | other results
Nc1cc(OCC2CCCCC2)nc(N)n1 [NU6034, 2,6-diamino-4(cyclohexylmethoxy)-pyrimidine] | 7 ± 3 | Insol | – | – | –
Nc1nc(N)c(N=Nc2ccc(Cl)cc2)c(OCC2CCCCC2)n1 [NU6037] | – | Insol | 3 ± 3 | – | inhibition at 10 µM [1, 12]: 6 ± 4%
Nc1nc(N)c(N=O)c(OCC2CCCCC2)n1 [NU6027, 2,6-diamino-4-cyclohexyl-methyloxy-5-nitroso-pyrimidine] | – | Insol | – | – | –
Nc1nc(OCC2CCCCC2)c2nc[nH]c2n1 [NU2058, O^6 -Cyclohexylmethylguanine] | – | – | – | – | inhibitory activity against CDK1(cdc2)/cyclin B complexes ([3]; in words, compared with olomoucine): very high inhibitory activity, comparable to that of olomoucine; cytotoxicity [4]: cytotoxic; activity as MGMT inhibitor [5]: very little activity; IC50 ([6]; IC50 CDK4, CDK4): 38 µM
Nc1nc(N)c(N=O)c(OCC2CC=CCC2)n1 (centres unmarked) [NU6045] | 70 ± 1 | Insol | 73 ± 3 | – | IC50 ([1]; CDK2, read-out: IC50 CDK2): 6.1 µM
Nc1nc(OCc2cccc3ccccc23)c2nc[nH]c2n1 [NU6020, 2-amino-6-(1-naphthyl)-methyloxypurine] | 3 ± 4 | Insol | 10 ± 4 | > 100 | –
Nc1nc(OCC23CC4CC(CC(C4)C2)C3)c2[nH]cnc2n1 [NU6014, 2-amino-6-adamantyl-methyloxypurine] | 20 ± 4 | Insol | – | > 100 | –
Clc1nc(OCC2CCCCC2)c2[nH]cnc2n1 [NU6047, 2-chloro-6-cyclohexylmethoxypurine] | 5 ± 3 | Insol | 6 ± 4 | – | insolubility in CDK1 assay ([2]; at 100 μM): Insol
Nc1nc(OCc2ccc3ccccc3c2)c2nc[nH]c2n1 [NU6018, 2-amino-6-(2-naphthyl)-methyloxypurine] | 9 ± 9 | Insol | 12 ± 4 | > 100 | –
CN(C)c1nc(OCC2CCCCC2)c2nc[nH]c2n1 [NU6048, 2-dimethylamino-6-cyclohexyl methoxypurine] | – | Insol | 27 ± 6 | – | inhibition at 10 µM [1, 12]: 31 ± 3%; insolubility in CDK1 assay ([2]; at 100 μM): Insol
CC[C@H](CO)Nc1nc(NCc2ccccc2)c2ncn(C(C)C)c2n1 [roscovitine, 6-(benzylamino)-2(R)-[{1-(hydroxy-methyl)propyl}amino]-9-isopropylpurine] | – | – | – | – | mode of inhibition [7]: competitive inhibitors for ATP binding; activity against CDK4 [8]: neither has been found to be active
Nc1nc(OCC2CC=CCC2)c2nc[nH]c2n1 (centres unmarked) [NU2073, O^6-(3'-Cyclohexenyl)methylguanine] | – | – | – | 53 | IC50 [3]: 3.2 µM; IC50 ([1]; CDK2, read-out: IC50 CDK2): 98 µM and 18.8 µM; inhibition at 100 µM [1]: 87 ± 1%
C=C(C)[C@@H]1CC=C(COc2nc(N)nc3[nH]cnc23)CC1 [NU2077] | 16 ± 26 | insol | – | > 100 | IC50 [3]: 22 µM; inhibition at 25 µM ([1]; read-out: % inhibition CDK2, at 25 μM): 54%
Cn1cnc2c(NCc3ccccc3)nc(NCCO)nc21 [Olomoucine, 2-(2-hydroxyethylamino)-6-benzylamino-9-methyl-purine] | – | – | – | – | mode of inhibition [7]: competitive inhibitors for ATP binding; activity against CDK6 [9]: neither has been found to be active; inhibitory activity in relation to many common kinases other than CDK's [10]: total lack of inhibitory activity
Nc1nc(OCC2CCCCC2)c2[nH]c(=O)[nH]c2n1 [NU6033, 2-Amino-6-cyclohexylmethyloxy-8-oxopurine] | – | – | – | – | insolubility in CDK1 assay ([2]; at 10 μM): insol.
Nc1nc(OCc2ccccc2)c2[nH]cnc2n1 [NU2005, 2-amino-6-benzyloxypurine] | – | – | – | 100 | IC50 [3]: 35 µM; IC50 ([1]; IC50 CDK2, CDK2): 28.6 µM; inhibition at 100 µM [1]: 64 ± 3%
CC(C)C(=O)COc1nc(N)nc2nc[nH]c12 [NU2056, O^6-(3-Methyl-2-oxobutyl)guanine] | – | – | – | 122 | IC50 [3]: 22 µM; inhibition at 100 µM [1]: 33 ± 2%
Nc1nc(OCCC2CCCCC2)c2[nH]cnc2n1 [NU6023, 2-amino-6-cyclohexylethyloxypurine] | – | – | – | 69 | % inhibition CDK1 ([3]; at 100 μM): 68 ± 6%; IC50 ([1]; CDK2, read-out: IC50 CDK2): 47.6 µM; inhibition at 100 µM [1]: 58 ± 6%
